The target in experiment [1] is T1, Nav 1.7 (Homo sapiens, UniProt Q15858).
T1 construct: expressed in transfected cells
In words: Whole-cell voltage clamp electrophysiology, manual patch clamp (marker b in Table of Examples). Type of experiment: cell-based. The note with it: marker b: Manual patch clamp data; read-out: Nav 1.7 activity. In short, it runs like this: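 Manual whole-cell patch clamp on cells expressing human NaV1.7, compounds applied by microperfusion. Protocol biased to inactivated-state block: holding −60 mV, hyperpolarizing step −120 mV for 100 ms, then depolarization to −20 mV for 25 ms, pulses at 0.1 Hz.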

Experiment [2] has as its system inflammatory pain induced by intraplantar injection of Complete Freund's Adjuvant. Description: FCA (Freund's Complete Adjuvant) test, model of inflammatory pain. Type of experiment: in vivo. The conditions noted are these: rat, tested 72 h post FCA injection. The protocol: Compounds of formula (I) may show analgesic activity in the FCA (Freund's Complete Adjuvant) test in the rat, a model of inflammatory pain which is induced by intraplantar injection of Complete Freund's Adjuvant (Stein et al. Pharmac. Biochem. Behav., 1988, 31, 445-451). […] Thus, the local anesthetic effect may not mask the analgesic properties of the compounds (Scott et al., British Journal of Anaesthesia, 1988, 61, 165-8). […] All compounds were tested 72 h post FCA injection.

For experiment [3], the target named is T2, Nav1.5 (Homo sapiens, UniProt Q14524).
T2 construct: expressed in transfected cells
T2 sequence (Q14524 whole entry): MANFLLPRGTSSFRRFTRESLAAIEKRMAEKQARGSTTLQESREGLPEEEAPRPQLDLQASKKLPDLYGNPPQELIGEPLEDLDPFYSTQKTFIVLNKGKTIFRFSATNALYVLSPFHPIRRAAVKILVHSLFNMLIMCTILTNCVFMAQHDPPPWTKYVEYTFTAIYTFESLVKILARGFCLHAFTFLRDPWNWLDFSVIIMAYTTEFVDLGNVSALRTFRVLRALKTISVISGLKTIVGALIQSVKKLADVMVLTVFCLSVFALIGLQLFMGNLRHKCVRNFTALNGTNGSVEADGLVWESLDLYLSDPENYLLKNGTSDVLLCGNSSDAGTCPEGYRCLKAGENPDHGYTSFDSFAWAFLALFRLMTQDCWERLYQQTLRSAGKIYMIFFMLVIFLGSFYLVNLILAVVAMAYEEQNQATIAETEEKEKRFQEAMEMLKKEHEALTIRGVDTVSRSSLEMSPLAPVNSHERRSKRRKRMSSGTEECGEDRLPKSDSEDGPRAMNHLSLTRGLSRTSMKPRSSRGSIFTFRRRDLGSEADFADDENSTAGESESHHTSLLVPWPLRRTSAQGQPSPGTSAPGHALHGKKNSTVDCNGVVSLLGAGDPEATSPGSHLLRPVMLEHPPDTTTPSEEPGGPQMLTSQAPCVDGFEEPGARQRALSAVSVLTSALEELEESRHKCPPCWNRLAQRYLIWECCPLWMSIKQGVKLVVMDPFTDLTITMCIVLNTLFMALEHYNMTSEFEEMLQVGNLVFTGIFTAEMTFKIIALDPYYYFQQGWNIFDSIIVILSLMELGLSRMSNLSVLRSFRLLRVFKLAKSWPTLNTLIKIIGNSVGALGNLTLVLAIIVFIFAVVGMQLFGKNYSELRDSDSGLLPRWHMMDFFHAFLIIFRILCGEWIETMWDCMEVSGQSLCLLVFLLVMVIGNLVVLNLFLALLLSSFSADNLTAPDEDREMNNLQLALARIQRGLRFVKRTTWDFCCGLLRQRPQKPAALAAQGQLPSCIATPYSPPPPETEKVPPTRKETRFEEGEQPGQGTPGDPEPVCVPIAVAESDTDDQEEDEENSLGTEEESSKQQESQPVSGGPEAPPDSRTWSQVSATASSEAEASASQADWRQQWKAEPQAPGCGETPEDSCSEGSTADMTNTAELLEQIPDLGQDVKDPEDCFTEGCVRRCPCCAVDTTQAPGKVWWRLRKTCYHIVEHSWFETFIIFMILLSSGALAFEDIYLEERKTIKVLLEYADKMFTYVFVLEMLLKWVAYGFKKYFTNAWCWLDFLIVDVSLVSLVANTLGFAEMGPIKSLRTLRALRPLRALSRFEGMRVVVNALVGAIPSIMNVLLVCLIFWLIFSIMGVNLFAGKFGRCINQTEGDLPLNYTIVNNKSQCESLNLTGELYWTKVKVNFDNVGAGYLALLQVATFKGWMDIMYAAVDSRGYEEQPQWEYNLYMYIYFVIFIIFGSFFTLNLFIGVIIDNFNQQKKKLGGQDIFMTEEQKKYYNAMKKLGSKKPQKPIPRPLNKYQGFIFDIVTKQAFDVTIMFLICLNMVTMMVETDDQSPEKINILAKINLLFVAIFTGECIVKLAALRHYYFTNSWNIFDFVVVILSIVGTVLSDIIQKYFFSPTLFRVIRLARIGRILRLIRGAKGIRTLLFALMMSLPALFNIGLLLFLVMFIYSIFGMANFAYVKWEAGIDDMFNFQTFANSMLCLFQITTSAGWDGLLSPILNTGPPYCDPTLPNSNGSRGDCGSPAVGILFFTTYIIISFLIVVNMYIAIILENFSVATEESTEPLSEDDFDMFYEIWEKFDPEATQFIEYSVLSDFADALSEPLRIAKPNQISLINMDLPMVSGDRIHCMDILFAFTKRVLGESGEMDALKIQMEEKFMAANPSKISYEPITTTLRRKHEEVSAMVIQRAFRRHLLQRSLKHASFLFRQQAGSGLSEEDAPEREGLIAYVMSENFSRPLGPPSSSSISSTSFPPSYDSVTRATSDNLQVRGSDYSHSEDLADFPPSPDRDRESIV
Description: Inhibition of Nav1.5 as measured using manual patch clamp. Type of experiment: cell-based. The source says:
(§1) Patch-clamp electrophysiology is considered the gold standard technique for investigation of ion channel function and pharmacology. Using this method, sodium channel currents can be measured in cells, which stably (or transiently) express the sodium channel subtype of interest. Application of compounds during such experiments provides a functional measure of the activity and potency of compounds affecting the ion channel of interest.
Electrophysiological studies can also be performed using the whole cell configuration of the standard manual patch clamp technique as described in the literature (e.g. Pflugers Arch., 1981, 391(2), 85-100). In this assay, cells that express the voltage-gated sodium channel protein of interest are exposed to the drugs by conventional microperfusion systems, or by a home-built perfusion system. A suitable voltage stimulus protocol is used to activate the voltage-gated sodium channels.
(§2) A suitable voltage stimulus protocol is used to activate voltage-gated sodium channel proteins of interest. A typical stimulus protocol may consist of sweeps of sequential voltage pulses starting from a holding potential (i.e. −65 mV), to a more positive and depolarising test pulse potential (i.e. −10 mV) and finally to a more negative and hyperpolarising potential (i.e. −100 mV). According to the biophysics of the voltage-gated ion channel of interest and interest in channel configuration the voltages and durations of the pulses as well as the overall frequency of sweeps applied might vary. Accordingly, a stimulus protocol was designed to assess compounds due to their potential to block NaV1.7 channels primarily in inactivated state. Selectivity over other voltage-gated sodium channel members was assessed by protocols that reflect the native function of the channels (i.e. heart rate or firing of neurons).
Electrophysiological studies can also be performed using the whole cell configuration of the standard manual patch clamp technique as described in the literature (e.g. Pflugers Arch., 1981, 391(2), 85-100). In this assay, cells that express the human voltage-gated sodium channel protein of interest are exposed to the drugs by conventional microperfusion systems, or by a home-built perfusion system. A suitable voltage stimulus protocol is used to activate the voltage-gated sodium channels. A suitable voltage stimulus protocol may consist of sequential voltage pulses from a holding potential, each first hyperpolarizing the cell, then depolarizing the channels for a brief period. A particularly suitable holding potential may be a voltage allowing a fraction of channels to remain in an inactivated state, like −60 mV. A suitable hyperpolarizing voltage and duration may be −120 mV for 100 ms, and depolarization voltage and duration may be −20 mV for 25 ms, and a suitable frequency of pulses may be 0.1 Hz, but may also have other parameters. Accordingly, a stimulus protocol was designed to assess compounds due to their potential to block NaV1.7 channels primarily in inactivated state. Selectivity over other voltage-gated sodium channel members was assessed by protocols that reflect the native function of the channels (i.e. heart rate or firing of neurons).
Inhibition of Nav1.5 by Compounds of formula (I) as measured using manual patch clamp

The target in experiment [4] is T2, Nav1.5. In words: Inhibition of Nav1.5 as measured using QPatch. Type of experiment: cell-based.
Excerpt: as §1
Electrophysiological studies can be performed using automated or manual patch-clamp techniques. Automated patch-clamp instruments suitable for this work include the Ion Works HT (MDS), Ion Works Quattro (MDS), PatchLiner (Nanion technologies), Port-A-Patch (Nanion technologies), QPatch (Sophion) or any other suitable platform.
For recording in automated patch-clamp instruments, cells expressing the voltage-gated sodium channel subtype of interest are dispensed in appropriate chips (plates with more than one recording chambers each containing one or more apertures to generate whole-cell patches), as provided by the manufacturer. Typically, the whole-cell perforated patch configuration is used for probing the pharmacology of compounds in automated patch-clamp electrophysiology on sodium channels. Extracellular and intracellular buffers for such experiments are composed according to the literature, or according to the instructions provided by the manufacturer of the instruments. Test solutions, which contain the compounds to be tested, are applied to the cells expressing the sodium channel of interest by a pipetting system, typically integrated into the robots.
as §2
Inhibition of Nav1.5 by Compounds of formula (I) as measured using QPatch

Experiment [5] addresses T1, Nav 1.7. In words: Nav 1.7 activity in Table of Examples, no platform marker printed. The note with it: no marker a/b/c printed in the cell. Type of experiment: cell-based. An excerpt: a.IonWork Quattro data, b=Manual patch clamp data, c=Automated patch clamp data M=Method
The target of experiment [6] is T1, Nav 1.7. Description: Whole-cell voltage clamp electrophysiology, automated patch clamp (marker c in Table of Examples). The class given is cell-based. The conditions noted are these: marker c: Automated patch clamp data; read-out: Nav 1.7 activity. The method, boiled down:
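Human NaV1.7 currents were recorded by whole-cell automated patch clamp, on IonWorks Quattro or another automated platform, typically in perforated-patch configuration. The stimulus protocol was designed to probe block mainly of the inactivated state, with a typical sweep stepping from about −65 mV holding to −10 mV, then −100 mV.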

T1 sequence (Q15858 whole entry): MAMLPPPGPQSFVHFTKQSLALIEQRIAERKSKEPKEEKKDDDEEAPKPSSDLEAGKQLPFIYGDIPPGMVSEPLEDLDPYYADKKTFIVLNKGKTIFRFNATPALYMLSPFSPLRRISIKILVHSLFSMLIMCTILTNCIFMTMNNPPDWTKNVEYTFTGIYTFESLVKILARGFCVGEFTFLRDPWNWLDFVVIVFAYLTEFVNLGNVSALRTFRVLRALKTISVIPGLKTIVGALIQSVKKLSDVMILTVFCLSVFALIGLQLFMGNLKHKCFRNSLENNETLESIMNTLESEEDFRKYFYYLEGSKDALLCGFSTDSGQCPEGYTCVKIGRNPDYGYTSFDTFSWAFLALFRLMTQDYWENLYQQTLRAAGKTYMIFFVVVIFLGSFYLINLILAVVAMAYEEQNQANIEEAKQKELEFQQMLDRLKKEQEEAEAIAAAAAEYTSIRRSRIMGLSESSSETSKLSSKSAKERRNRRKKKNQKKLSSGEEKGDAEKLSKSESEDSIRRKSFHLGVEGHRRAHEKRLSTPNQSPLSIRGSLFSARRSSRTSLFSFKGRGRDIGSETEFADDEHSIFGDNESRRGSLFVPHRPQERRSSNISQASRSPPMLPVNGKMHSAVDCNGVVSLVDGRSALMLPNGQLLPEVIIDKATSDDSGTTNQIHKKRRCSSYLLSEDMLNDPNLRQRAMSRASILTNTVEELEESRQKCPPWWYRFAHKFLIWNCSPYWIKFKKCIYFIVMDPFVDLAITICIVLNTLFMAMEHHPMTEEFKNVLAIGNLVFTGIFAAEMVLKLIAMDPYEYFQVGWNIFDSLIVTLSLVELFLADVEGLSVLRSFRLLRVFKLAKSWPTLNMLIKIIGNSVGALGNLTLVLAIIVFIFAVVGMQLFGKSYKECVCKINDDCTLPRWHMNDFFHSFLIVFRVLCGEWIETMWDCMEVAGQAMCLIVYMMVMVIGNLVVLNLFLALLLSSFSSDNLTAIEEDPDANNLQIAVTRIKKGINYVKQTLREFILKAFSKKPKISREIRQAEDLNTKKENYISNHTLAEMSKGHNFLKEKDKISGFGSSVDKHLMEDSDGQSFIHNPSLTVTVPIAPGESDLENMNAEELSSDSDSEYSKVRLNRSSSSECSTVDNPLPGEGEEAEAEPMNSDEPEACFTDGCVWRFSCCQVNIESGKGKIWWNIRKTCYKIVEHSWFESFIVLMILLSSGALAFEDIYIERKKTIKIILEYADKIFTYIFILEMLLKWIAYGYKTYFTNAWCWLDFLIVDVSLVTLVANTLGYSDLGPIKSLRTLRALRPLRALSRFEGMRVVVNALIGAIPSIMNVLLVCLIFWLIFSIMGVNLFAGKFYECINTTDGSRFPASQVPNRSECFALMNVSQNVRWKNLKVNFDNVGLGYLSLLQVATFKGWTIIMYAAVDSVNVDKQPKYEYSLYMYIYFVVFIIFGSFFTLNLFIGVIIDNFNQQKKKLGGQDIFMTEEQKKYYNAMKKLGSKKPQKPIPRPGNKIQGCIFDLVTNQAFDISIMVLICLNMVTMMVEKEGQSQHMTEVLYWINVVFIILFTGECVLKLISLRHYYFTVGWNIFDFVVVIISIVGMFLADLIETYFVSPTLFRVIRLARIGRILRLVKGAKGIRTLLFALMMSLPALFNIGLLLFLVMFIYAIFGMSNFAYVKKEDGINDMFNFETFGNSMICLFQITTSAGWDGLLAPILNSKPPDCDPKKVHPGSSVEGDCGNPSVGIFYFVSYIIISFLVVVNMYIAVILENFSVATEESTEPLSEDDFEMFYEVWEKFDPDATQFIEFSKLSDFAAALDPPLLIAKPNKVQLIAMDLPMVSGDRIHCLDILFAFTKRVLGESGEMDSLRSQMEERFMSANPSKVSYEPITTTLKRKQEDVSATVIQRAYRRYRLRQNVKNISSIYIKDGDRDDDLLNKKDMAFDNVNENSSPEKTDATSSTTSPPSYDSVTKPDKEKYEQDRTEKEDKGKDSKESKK

Regarding `CN(c1ccccc1)c1nc(N)nc(-c2noc(-c3nccs3)n2)n1` [Example 125, N-Methyl-N-pheny!-6-(5-thiazol-2-yl-[1,2,4]oxadiazol-3-yl)-[1,3,5]triazine-2,4-diamine], the results for the IC50 in experiment [1] and in experiment [3] were 560 nM and 917 nM, respectively. Also, the “analgesic efficacy in FCA test” value in experiment [2] (1 mg/kg p.o.) is given as “efficacious”.

As for `CN(c1ccccc1)c1nc(N)nc(-c2noc(-c3ccc(OCC(F)(F)F)nc3)n2)n1` [Example 67, N-Methyl-N-phenyl-6-{5-[6-(2,2,2-trifluoroethoxy)-pyridin-3-yl]-[1,2,4]oxadiazol-3-yl}-[1,3,5]triazine-2,4-diamine], the IC50 in experiment [1] turned out to be 110 nM; in experiment [4], 7060 nM. Besides, the “analgesic efficacy in FCA test” value in experiment [2] (3 mg/kg p.o.) is given as “efficacious”.

Regarding `Nc1nc(Nc2ccccc2)nc(-c2noc(-c3nccs3)n2)n1` [Example 130, N-Phenyl-6-(5-thiazol-2-yl-[1,2,4]oxadiazol-3-yl)-[1,3,5]triazine2,4-diamine], the IC50 in experiment [1] was 44 nM; in experiment [4], 1670 nM. Moreover, the “analgesic efficacy in FCA test” value in experiment [2] (1 mg/kg p.o.) is given as “efficacious”.

Consider `CN(c1ccccc1)c1nc(N)nc(-c2noc(-c3ccc(COCC(F)(F)F)nc3)n2)n1` [Example 291, 2-N-Methyl-2-N-phenyl-6-(5-{6-[(2,2,2-trifluoroethoxy)methyl]pyridin-3-yl}-1,2,4-oxadiazol-3-yl)-1,3,5-triazine-2,4-diamine], for which, in experiment [5], the IC50 was 73 nM.

Take `CN(c1ccccc1)c1nc(N)nc(-c2noc(C(=O)NCc3ccccc3)n2)n1` [Example 71, 3-[4-Amino-6-(methyl-phenyl-amino)-[1,3,5]triazin-2-yl]-[1,2,4]oxadiazole-5-carboxylic acid benzylamide]: the figures for the IC50 in experiment [1] and in experiment [4] were 814 nM and 3020 nM, respectively.

With `Nc1nc(Nc2ccccc2)nc(-c2noc(-c3ccccn3)n2)n1` [Example 39, N-Phenyl-6-(pyridin-2-yl-[1,2,4]oxadiazol-3-yl)-[1,3,5]triazine-2,4-diamine], the IC50 came to 319 nM in experiment [1] and 891 nM in experiment [4].

Regarding `CN(c1ccccc1)c1nc(N)nc(-c2noc(-c3ncccc3Br)n2)n1` [Example 43, 6-[5-(3-Bromopyridin-2-yl)-[1,2,4]oxadiazol-3-yl]-N-methyl-N-phenyl-[1,3,5]triazine-2,4-diamine], the IC50 in experiment [6] turned out to be 102 nM; in experiment [4], 1030 nM.

The values are drawn from patent publication US8895733B2 (Novartis AG, priority 2010, dated 2014).
